# “Also recorded” adds a separate entry of the source. Like-named read-outs stand apart in the source and are kept apart here.
# B1: clone 23111: rabbit monoclonal antibody specific to pY1235-MET; VH SEQ ID NO:1, VL SEQ ID NO:2 (antibody, V domains shown)
# VH: QSVEESGGRLVTPGTPLTLTCTVSGFSLSNYAMGWFRQAPGKGLEWIGIISRSGALWYANWANGRFTISKTSTTVDLKITSPTPEDTATYFCARTNYYDGYGGVDAVLTRFDFWGQGTLVTVSSG
# VL: ADVVMTQTPSSVEAAVGGTVTIKCQASQSIGGGLSWYQQKAGQPPKLLIYGASTLESGVPSRFKGSGSGTEFTLTISDLECADAATYYCQSNYGSDIRDYGHTFGGGTEVVVKGDPVAPTVLIFPP
# Experiments:
# [1] = test system: GTL-16 tumor xenografts; experiment: GTL-16 xenograft tumor growth; format: in vivo, mice
# Procedure: Animal models and drug administration. Athymic nude mice (nu/nu NCr; Animal Production Program, NCI-Frederick) were implanted with the human cancer cell lines U87 (glioblastoma); A549 (lung carcinoma); MDA-MB-231 (breast carcinoma); HT-29 (colon carcinoma); or with GTL-16, MKN45, or SNU5 (all gastric carcinomas, MET-amplified) as described (17). […] Sorafenib was dissolved in DMSO for in vitro studies. […] Tivantinib was administered orally in a PEG 400:20% vitamin E tocopheryl polyethylene glycol succinate solution (60:40) vehicle. Fit-for-purpose MET inhibitor studies.
# [2] = target: MET (Homo sapiens, UniProt P08581)
# Procedure: Fit-for-purpose MET inhibitor studies. […] Extracts of core needle biopsies collected 4 h after tivantinib administration on Day 8 were analyzed for MET, pMET, and hypoxia inducible factor 1, alpha subunit (HIF-1α) (21).
# MET immunoassay procedure. The full-length MET immunoassay measures the total levels of full-length MET in tumor tissue samples, irrespective of phosphorylation status. […] Wells were blocked for 2 h with 1×PBS, 0.5% mannitol, 0.2% glycine, and 0.2% BSA, and strips were assembled on 96-well plate frames, freeze-dried, and sealed in desiccated pouches (6-month stability). For the immunoassay, 100 μL each of purified rMET calibrator, controls, and tumor lysates (at protein concentrations of 10-50 μg/mL) prepared in assay buffer (1×PBS/Casein [BioFx] containing PhosSTOP, protease inhibitors and 0.1% Triton X-100 [Roche]) were added to the AF276-coated wells. The rMET assay calibrator was prepared for the dynamic range of the assay. Plates were incubated at ambient temperature (25° C.±3° C.) on an orbital shaker (600 rpm) 1 h to capture MET. After three washes with assay buffer, 100 μL/well 200 ng/mL biotin-conjugated mouse monoclonal MET antibody (clone L41G3) was added to the plates and incubated 1 h at 25° C.±3° C., followed by a second wash and the addition of 100 μL/well 200 ng/mL streptavidin poly-HRP conjugate (Pierce). After 30-min incubation with the HRP-conjugate, plates were washed 4 times and 100 μL SuperSignal ELISA Pico Chemiluminescent Substrate (pierce) was added to each well. Plates were read within 10 min using an Infinite 200 Microplate ELISA reader (Tecan, USA). MET immunoassay calibration curves were analyzed on GraphPad Prism and unknown values were calculated using 4-parameter curve fitting.
# Three different pMET immunoassays were developed for the PD studies: pY1234/1235-, pY1235-, and pY1356-MET (Supplemental Material). […] The pMET assay calibrators were prepared for the dynamic range of each assay. Assay control samples were prepared by combining GTL-16, SNU5, A549, MKN45, or U87 xenograft tumor lysates to achieve low, medium, and high MET concentrations at 10 to 50 μg/mL total protein concentrations.
# [3] = test system: HIF-1α; experiment: HIF-1α immunoassay in SNU5 xenograft extracts; format: in vivo; conditions: SNU5, day 8, pazopanib 100 mg/kg daily, p<0.05
# [4] = test system: pY1235-MET in MET-expressing cell lines (GTL-16, HT29, A549); experiment: pY1235-MET immunofluorescence staining of treated cancer cell lines; format: cell-based, human; conditions: 100 nM drug, clone 23111 staining, FIG. 1B
# Procedure: MET immunofluorescence analysis. […] Cells were fixed in 10% neutral-buffered formalin (Sigma-Aldrich) for 24 h, pelleted, and then embedded in paraffin. After 5-μm sectioning, antigen retrieval with Bond Epitope Retrieval Solution 2 (at 100° C. for 10 min) and immunofluorescent staining were performed on the Bond-max Autostainer (Leica Biosystems). For antigen detection, 10 μ/mL primary antibody (anti-pY1235-MET, clone 23111) was followed by 10 μg/mL goat anti-rabbit AF488 (Life Technologies). Immunofluorescence microscopy was performed on core needle biopsies of a resected a human HPRC tumor stained with 5 μg/mL anti-full-length MET (clone Met4) followed by 10 μg/mL anti-mouse AF660 (Life Technologies). Image acquisition and analysis were performed on a wide-field fluorescent, confocal microscope (Nikon 90i, Andor Camera, NIS Elements Software).
# [5] = target: pY1235-MET (Homo sapiens, UniProt P08581); experiment: BIAlite-Biosensor interaction analysis of antibody binding affinity; conditions: range of protein concentrations, details not shown
# Procedure: To facilitate bulk production, rabbit monoclonal antibodies (clones 23111 and 7334) were converted into recombinant proteins through transient expression in HEK293 cells (8). The cDNA from rabbit hybridomas was used to clone IgG heavy and light chains in a 7.7 kB ampicillin-resistant mammalian expression vector co-expressing EB oriP, zeocin selection, and CMV promoter for transient expression in HEK293 cells. For mammalian expression plasmids, DNA was prepared using the GenElute XP Maxiprep kit (Sigma-Aldrich) and verified by agarose gel electrophoresis. Recombinant protein production provided typical yields of 100-300 mg/L in suspension cultures. Specificity of antibodies, determined by Western blot using xenograft lysate and rMET protein, was unaffected by this process. To further characterize these MET antibodies, their binding affinities were measured over a range of protein concentrations using interaction analysis performed with a BIAlite-Biosensor (Pharmacia) as previously described (9).
# [6] = target: T1, recombinant Y1235D-MET peptide (N-terminal GST-Y1235D-MET) (Homo sapiens, UniProt P08581, Y1235D); experiment: Western blot specificity analysis; format: binding; conditions: FIG. 7B
# T1 construct: a GST-fusion with MET amino acids 912-1390 harboring a Y1235D-specific mutation; purchased CarnaBio USA, Inc
# Procedure: (§1) Rabbits were selected for splenectomy and B-cells were subsequently fused with the rabbit cell line 240E-W2 to produce hybridomas based on high antiserum binding to phosphorylated synthetic peptide and lower or undetectable binding to the nonphosphorylated synthetic peptide of identical sequence. Specificity of the pY1235-MET antibody (clone 23111) was tested by preincubating the antibody with synthetic MET peptides phosphorylated at Y1235 (99% phosphorylated at Y1235, nonphosphorylated at Y1234, 1% other impurities) or at Y1234, or preincubating with recombinant RON (cytoplasmic domain, Millipore) (FIG. 7A). Only preincubation with the pY1235 peptide blocked binding of the antibody to the MET protein band. Specificity of clone 23111 was further confirmed by Western blotting of a GST-fusion with MET amino acids 912-1390 harboring a Y1235D-specific mutation (N-terminal GST-Y1235D-MET peptide, 76 kDa; CarnaBio USA, Inc) and of a recombinant cytoplasmic domain of RON (FIG. 7B). […] According to the manufacturer's specifications, anti-pY1234/1235-MET (clone D26) can also bind to tyrosine phosphorylated SRC proteins by Western blot.
# (§2) Protein concentrations were determined by bicinchoninic acid assay (BCA assay), and cell lysate loads between 25 and 50 μg per well were run on 4% to 20% precast polyacrylamide gradient gels (Bio-Rad Laboratories) for SDS-PAGE at 100 V for up to 2 hours. Proteins separated by gel electrophoresis were transferred to a nitrocellulose membrane using the Mini-PROTEAN Tetra electrophoresis system (Bio-Rad) at 90 V for 4 hours at 2° C. to 8° C. Membranes were blocked in Odyssey blocking buffer (LI-COR) for 1 hour at 25° C.±3° C. Blots were probed first with 1 μg/mL mouse, rabbit, or goat anti-MET monoclonal antibody in Odyssey blocking buffer overnight at 2° C. to 8° C. with slow orbital shaking and then with an IR dye-labeled secondary antibody against mouse, rabbit, or goat antibody (1:5000 in Odyssey blocking buffer; LI-COR) for 1 hour at 25° C.±3° C. with orbital shaking. Blots were visualized using the Odyssey Infrared imager (LI-COR). […]
# [7] = target: T2, recombinant cytoplasmic domain of RON (Homo sapiens, UniProt Q04912); experiment: Western blot specificity analysis; format: binding; conditions: FIGS. 7A and 7B
# T2 construct: preincubating with recombinant RON (cytoplasmic domain, Millipore); purchased Millipore
# T2 sequence (Q04912 979-1400 limits assumed): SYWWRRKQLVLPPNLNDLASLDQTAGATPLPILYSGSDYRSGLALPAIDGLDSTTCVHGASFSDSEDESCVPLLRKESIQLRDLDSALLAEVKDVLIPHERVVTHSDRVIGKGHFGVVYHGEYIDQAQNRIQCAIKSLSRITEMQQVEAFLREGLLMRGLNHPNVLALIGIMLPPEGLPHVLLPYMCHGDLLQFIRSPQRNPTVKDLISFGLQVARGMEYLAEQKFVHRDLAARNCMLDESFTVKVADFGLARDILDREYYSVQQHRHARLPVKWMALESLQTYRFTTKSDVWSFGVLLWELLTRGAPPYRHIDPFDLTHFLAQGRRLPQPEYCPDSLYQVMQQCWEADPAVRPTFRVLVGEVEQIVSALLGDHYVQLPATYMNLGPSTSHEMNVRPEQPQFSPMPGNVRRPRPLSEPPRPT
# Procedure: as §1, §2
# [8] = test system: pY1234-MET; experiment: Western blot specificity analysis; format: binding; conditions: FIG. 7A
# Procedure: as §1, §2
molecule,measurement,setting,value
"C[C@@H](Oc1cc(-c2cnn(C3CCNCC3)c2)cnc1N)c1c(Cl)ccc(F)c1Cl [PF02341066, crizotinib]",tumor growth,"[1]; daily oral 25 mg/kg, by the seventh day of treatment",achieved stasis
Cc1[nH]c(/C=C2\C(=O)Nc3ccc(S(=O)(=O)Cc4c(Cl)cccc4Cl)cc32)c(C)c1C(=O)N1CCC[C@@H]1CN1CCCC1 [PHA665752],tumor growth,"[1]; 25 and 50 mg/kg/day IP, after 8-10 days of treatment",achieved tumor stasis
same,reduction in pY1235-MET:MET ratio,"[2]; GTL-16, 25 mg/kg IP, 4 h after first dose",62%
same,reduction in pY1235-MET:MET ratio,"[2]; GTL-16, 50 mg/kg IP, 4 h after first dose",80%
same,reduction in pY1235-MET:MET ratio,"[2]; GTL-16, 4 h after the first dose (discussion summary)",60-80%
same,pY1356-MET:MET ratio,"[2]; GTL-16, PHA665752 after first dose, recovered to normal within 20 h",declined after the first dose
Cc1ccc(Nc2nccc(N(C)c3ccc4c(C)n(C)nc4c3)n2)cc1S(N)(=O)=O [pazopanib],increase in HIF-1α levels,[3],46%
CNC(=O)c1cc(Oc2ccc(NC(=O)Nc3ccc(Cl)c(C(F)(F)F)c3)cc2)ccn1 [sorafenib],sensitivity of pY1235-MET plasma membrane staining to drug,[4],not
B1,IC50,[5],1.2 nM
same,reactivity with Y1235D-MET (tyrosine 1235 replaced by aspartic acid),[6],no cross-reactivity; also recorded: undetectable cross-reactivity
same,cross-reactivity with cytoplasmic domain of RON,[7],no cross-reactivity
same,reactivity with MET epitope phosphorylated only at Y1234,[8],no cross-reactivity; also recorded: undetectable reactivity
